# Results published in PubChem BioAssay (NCI).
#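 Cultured in 96-well plates, cells were exposed to test compound for 48 hours across five concentrations. GI50 marks 50% less growth. At the TGI there is no net growth.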
# How the values were obtained:
# Assay in all cases: NCI-60 cell line screen, 48 h
# [1] = test system: HCT-116 colon
# [2] = test system: A498 renal
# [3] = test system: ACHN renal
# [4] = test system: UACC-257 melanoma
# [5] = test system: NCI-H460 lung
# [6] = test system: SK-OV-3 ovarian
# [7] = test system: CAKI-1 renal
# [8] = test system: LXFL 529 NSCLC
# [9] = test system: LOX IMVI melanoma
# [10] = test system: CCRF-CEM leukemia
# [11] = test system: UACC-62 melanoma
# [12] = test system: COLO 205 colon
# [13] = test system: EKVX NSCLC
# [14] = test system: RPMI-8226 leukemia
# [15] = test system: OVCAR-4 ovarian
# [16] = test system: SW-620 colon
# [17] = test system: A549 NSCLC
# [18] = test system: SK-MEL-5 melanoma
# [19] = test system: SF-539 CNS
# [20] = test system: HOP-18 NSCLC
# [21] = test system: OVCAR-8 ovarian
# [22] = test system: SF-295 CNS
# [23] = test system: DMS 273 small cell lung
# [24] = test system: UO-31 renal
# [25] = test system: MALME-3M melanoma
# [26] = test system: SK-MEL-2 melanoma
# [27] = test system: RXF 393 renal
# [28] = test system: HL-60(TB) leukemia
# [29] = test system: SF-268 CNS
# [30] = test system: SK-MEL-28 melanoma
# [31] = test system: NCI-H23 lung
# [32] = test system: SN12C renal
# [33] = test system: 786-0 renal
# [34] = test system: MOLT-4 leukemia
# [35] = test system: HOP-62 NSCLC
# [36] = test system: OVCAR-5 ovarian
# [37] = test system: OVCAR-3 ovarian
# [38] = test system: DLD-1 colon
# [39] = test system: NCI-H522 lung
# [40] = test system: M14 melanoma
# [41] = test system: SNB-19 CNS
# [42] = test system: HCC-2998 colon
# [43] = test system: KM20L2 colon
# [44] = test system: SNB-75 CNS
# [45] = test system: IGROV1 ovarian
# [46] = test system: K-562 leukemia
# [47] = test system: U251 CNS
# [48] = test system: NCI-H226 lung
# [49] = test system: KM12 colon
# [50] = test system: HCT-15 colon
# [51] = test system: HT29 colon
# [52] = test system: TK-10 renal
compound,measurement,setting,value
CC(=O)[CH-]C(=O)c1ccccc1.CC(=O)[CH-]C(=O)c1ccccc1.CC[C@H](CCC(C)[C@H]1CCC2[C@@H]3CC=C4C[C@@H]([O-])CC[C@]4(C)C3CC[C@@]21C)C(C)C.CC[C@H](CCC(C)[C@H]1CCC2[C@@H]3CC=C4C[C@@H]([O-])CC[C@]4(C)C3CC[C@@]21C)C(C)C.Cl.[Ti+4] (stereo partly specified),TGI,[1],> 25 µM
same,GI50,[2],> 25 µM
same,TGI,[2],> 25 µM
same,TGI,[3],> 25 µM
same,TGI,[4],> 25 µM
same,TGI,[5],> 25 µM
same,GI50,[6],> 25 µM
same,TGI,[6],> 25 µM
same,TGI,[7],> 25 µM
same,GI50,[8],> 25 µM
same,TGI,[8],> 25 µM
same,TGI,[9],> 25 µM
same,TGI,[10],> 25 µM
same,GI50,[11],> 25 µM
same,TGI,[11],> 25 µM
same,TGI,[12],> 25 µM
same,TGI,[13],> 25 µM
same,TGI,[14],> 25 µM
same,TGI,[15],> 25 µM
same,TGI,[16],> 25 µM
same,TGI,[17],> 25 µM
same,TGI,[18],> 25 µM
same,TGI,[19],> 25 µM
same,GI50,[20],> 25 µM
same,TGI,[20],> 25 µM
same,TGI,[21],> 25 µM
same,TGI,[22],> 25 µM
same,GI50,[23],> 25 µM
same,TGI,[23],> 25 µM
same,TGI,[24],> 25 µM
same,TGI,[25],> 25 µM
same,TGI,[26],> 25 µM
same,GI50,[27],> 25 µM
same,TGI,[27],> 25 µM
same,TGI,[28],> 25 µM
same,TGI,[29],> 25 µM
same,TGI,[30],> 25 µM
same,TGI,[31],> 25 µM
same,TGI,[32],> 25 µM
same,TGI,[33],> 25 µM
same,TGI,[34],> 25 µM
same,TGI,[35],> 25 µM
same,TGI,[36],> 25 µM
same,TGI,[37],> 25 µM
same,GI50,[38],> 25 µM
same,TGI,[38],> 25 µM
same,TGI,[39],> 25 µM
same,TGI,[40],> 25 µM
same,TGI,[41],> 25 µM
same,TGI,[42],> 25 µM
same,GI50,[43],> 25 µM
same,TGI,[43],> 25 µM
same,TGI,[44],> 25 µM
same,TGI,[45],> 25 µM
same,TGI,[46],> 25 µM
same,TGI,[47],> 25 µM
same,TGI,[48],> 25 µM
same,TGI,[49],> 25 µM
same,TGI,[50],> 25 µM
same,TGI,[51],> 25 µM
same,TGI,[52],> 25 µM
